Data taken from patent US9505824B2, “Antigen peptide derived from the sequence of epidermal growth factor receptor having T790M point mutation” (Kanagawa Prefectural Hospital Organization, priority 2012, dated 2016).

Experiments:
[1] = biological target: T1, HLA-A2 molecule (Homo sapiens, UniProt P04439, D140Y/D185E/D98H/E176V/E277Q/G131W/G231S/I119V/I121R/I166T/I218V/L300P/L318F/N151K/N90K/P208A/P217A/Q86G/Q94H/R138H/R169H/T345S); assay: HLA class I stabilization assay with TAP2-deficient T2 cells; type: binding; settings: T2 cells expressing HLA-A2
T1 construct: TAP2-deficient T2 cells expressing HLA-A2; host or cells: T2 cells (TAP2-deficient, HLA-A2+)
Method: FIG. 6. HLA-A2-binding capability of EGFR-T790M-derived peptides. The binding of selected peptides to an HLA-A2 molecule was evaluated by HLA class I stabilization assay with TAP2-deficient T2 cells expressing HLA-A2.
The binding of predicted peptides to an HLA-A2 molecule was evaluated by HLA class I stabilization assay with TAP2-deficient T2 cells (HLA-A2+) (RIKEN, Saitama, Japan). After overnight culture in RPMI 1640 medium at 26° C., T2 cells were cultured for 3 hours at 26° C. in the presence of each synthetic peptide. The cells were cultured for 2.5 hours at 37° C., and then stained with anti-HLA-A2 antibody (BB7.2) (MBL, Nagoya, Japan), followed by analysis with flow cytometry. The binding capability of each peptide to the HLA-A2 molecule was evaluated by comparing the mean fluorescence intensity (MFI) of HLA-A2 expression of the peptide with those of the positive and the negative controls. The HLA-A2-restricted HIV peptide and CMV peptide were used as positive controls, and H-2K^b-restricted OVA peptide was used as a negative control.

[2] = tested on: HLA-A2 molecule; assay: HLA class I stabilization assay with TAP2-deficient RMA-S/A2 cells; type: binding; settings: peptide 10 μg/ml
[3] = tested on: PBMCs from HLA-A2+ healthy donors; assay: Immunogenicity in PBMCs of HLA-A2+ healthy donors, IFN-γ ELISPOT against peptide-pulsed T2 cells; type: cell-based, human; settings: PBMCs from 6 HLA-A2+ healthy donors, repeated stimulation with peptide 10 μg/ml
Excerpt: FIG. 1. Immunogenicity of T790M-5 and T790M-7 peptides in peripheral blood mononuclear cells (PBMCs) from normal donors. Immunogenicity of T790M-5 and T790M-7 peptides was examined with PBMCs from 6 different HLA-A2^+ healthy donors.

With IMQLMPFGV [Peptide T790M-D] the “binding to HLA-A2 (in words)” value [1] was “higher binding”.

With LIMQLMPFGC [Peptide T790M-3] the “binding to HLA-A2 (in words)” value [1] was “confirmed to bind to HLA-A2” and the “HLA binding capability (%) (MFI increase of HLA-A2 expression)” value [2] was 0%.

With QLIMQLMPFG [Peptide T790M-2] the “HLA binding capability (%) (MFI increase of HLA-A2 expression)” value [2] was 0%.

IMQLMPFGCLL [Peptide T790M-8] was tested, and the “healthy donors in whom T cell lines secreting IFN-γ in response to the peptide were established” value [3] was “none of the 6 healthy donors” and the “HLA binding capability (%) (MFI increase of HLA-A2 expression)” value [2] was 69.3%.

With LTSTVQLIMQL [Peptide T790M-6] the “HLA binding capability (%) (MFI increase of HLA-A2 expression)” value [2] was 0%.

For IMQLMPFGL [Peptide T790M-E], the “binding to HLA-A2 (in words)” value [1] was “higher binding”.

In the case of IMQLMPFGCL [Peptide T790M-4], the “HLA binding capability (%) (MFI increase of HLA-A2 expression)” value [2] was 0%.

For VQLIMQLMPF [Peptide T790M-1], the “HLA binding capability (%) (MFI increase of HLA-A2 expression)” value [2] was 0%.
